Measured values: patent US20090068290A1, “BIFEPRUNOX DOSES FOR TREATING SCHIZOPHRENIA” (priority 2006, published 2009)
Entries after “also recorded” stand apart in the source; their conditions may differ.

Key:
[1] = Food effect on bifeprunox PK (standard high-fat meal)
Description: The objective of this study is to assess the pharmacokinetics (PK) of bifeprunox. The PK of bifeprunox in healthy subjects were investigated based on a pooled analysis of PK parameters from 21 clinical pharmacology studies. The pooled analysis included PK profiles after single and multiple doses to 132 and 399 subjects, respectively, and explored the potential effects of age, gender, body weight, and race. In addition, PK in patients with schizophrenia were investigated using a population PK approach based on samples from 376 patients in phase II studies and 434 patients in phase III studies.

[2] = test system: patients with chronic schizophrenia; assay: CDSS total score, Clinical Study Four; type: in vivo, human; conditions: FAS, ANCOVA; for CDSS total, Adjusted Mean Change from Baseline (LS mean): LOCF
Description: METHODOLOGY: This study was a multinational, multicenter, randomized, double-blind, parallel-group, placebo-controlled, fixed-dose study. The study consisted of a 3- to 6-day antipsychotic-free run-in period, after which patients were randomised to 6 months of double-blind treatment with fixed doses of bifeprunox (20 mg/day (BX20) or 30 mg/day (BX30)) or placebo (PBO). Patients allocated to the BX groups were up-titrated from 0.25 mg/day over 7 days (BX20) or 8 days (BX30), and then continued on these doses for the remainder of the study. […] At predetermined time points, blood samples were obtained for drug concentration analysis of BX and its major metabolites (3′- and 4′-sulfate conjugates of BX), and pharmaco-economic assessments were performed.

[3] = Incidence of hyperglycemia and diabetes-related adverse events in placebo-controlled trials; type: in vivo, human
Description: Hyperglycemia, in some cases extreme and associated with ketoacidosis or hyperosmolar coma or death, has been reported in patients treated with atypical antipsychotics. The incidence of hyperglycemia and diabetes-related adverse events (such as hyperglycemia, elevated blood glucose, impaired glucose tolerance, diabetes mellitus, inadequately controlled diabetes) in patients treated with bifeprunox was 0.5% (5/1050) and in placebo-treated patients was 0.6% (3/469) in six-week placebo-controlled trials. […] Assessment of the relationship between atypical antipsychotic use and glucose abnormalities is complicated by the possibility of an increased background risk of diabetes mellitus in patients with schizophrenia and the increasing incidence of diabetes mellitus in the general population. Given these confounders, the relationship between atypical antipsychotic use and hyperglycemia-related adverse events is not completely understood. […] Because bifeprunox was not marketed at the time these studies were performed, it is not known if bifeprunox is associated with this increased risk. Precise risk estimates for hyperglycemia-related adverse events in patients treated with atypical antipsychotics are not available.

[4] = Laboratory assessments (prolactin, lipids), Clinical Study One; type: in vivo, human
Description: METHOD: A 6-Week randomized, placebo-controlled, risperidone-referenced dose-finding study included 589 randomized patients with an acute exacerbation of schizophrenia (DSM-IV-TR). […] The change in the Positive and Negative Symptom Scale (PANSS) total score, from baseline to endpoint, was the primary outcome measure. Secondary efficacy measures included: PANSS positive, PANSS negative, PANSS general psychopathology (GPP) score, PANSS-derived Brief Psychiatric Rating Scale (BPRS) score, Clinical Global Impressions-Severity of Illness (CGI-S), CGI-Improvement (CGI-I) scores, and responder rates. Safety and tolerability evaluations included extrapyramidal symptoms (EPS), weight gain, lipid profile, and serum prolactin. Risperidone was included for assay sensitivity.

O=c1[nH]c2cccc(N3CCN(Cc4cccc(-c5ccccc5)c4)CC3)c2o1 [Bifeprunox, 7-[4-([1,1′-biphenyl]-3-ylmethyl)-1-piperazinyl]-2(3H)-benzoxazolone]
increase in AUC with a standard high-fat meal ([1]; 40 mg dose): 29%
increase in Cmax with a standard high-fat meal ([1]; 40 mg dose): 10%
Tmax ([1]; human, plasma, oral, 40 mg): 1.5 h
CDSS total, Adjusted Mean Change from Baseline (LS mean) ([2]; Month 6, listed as BX20): 0.0
CDSS total, Adjusted Mean Change from Baseline (LS mean) ([2]; Month 6, listed as BX30): 0.1
CDSS total, Adjusted Mean Change from Baseline (LS mean) ([2]; Week 6, listed as BX20): −0.2
CDSS total, Adjusted Mean Change from Baseline (LS mean) ([2]; Week 6, listed as BX30): −0.1
mean CDSS total scores versus PBO, per-visit LOCF analysis ([2]; either BX group): no statistically significant differences
hyperglycemia or diabetes-related adverse events ([3]; 26-week placebo-controlled trial): no patients reported
incidence of hyperglycemia and diabetes-related adverse events ([3]; six-week placebo-controlled trials): 0.5%
prolactin ([4]; bifeprunox 5-20 mg, 6 weeks, vs placebo): decreased prolactin levels; also recorded: a decrease in prolactin compared with the placebo group
non-fasting triglycerides and total cholesterol compared to placebo ([4]; bifeprunox, 6 weeks (Example 4)): statistically significant improvements
